# Results taken from patent publication US20030139469A1, “Use of inhibitors of soluble epoxide hydrolase to inhibit vascular smooth muscle cell proliferation” (THE REGENTS OF THE UNIVERSITY OF CALIFORNIA, priority 2002, published 2003).
# What was measured:
# cyclin D1 = experiment: Western blot cyclin D1 in VSM cells; format: cell-based, human; settings: 10 μM, PDGF-BB, 6 to 18 h, vs DMSO vehicle, FIG. 7
# Protocol: Human VSM cells were grown to 80-90% confluence and serum-starved as in FIG. 1. […] Data shown are representative of at least two independent experiments. Western Blots. After treatment with appropriate compounds for the indicated times, cells were lysed, protein concentrations were determined by the Lowry method, and equal protein quantities were electrophoresed and Western blotted.
# HL-60 cells = experiment: HL-60 cell proliferation (hemocytometer count); format: cell-based, human; settings: 12 μM, 24 and 48 h, FIG. 2
# Protocol: Human promyelocytic HL-60 were incubated in serum-containing medium and CDU (12 μM) or DMSO vehicle was added at time zero. At 24 and 48 h after CDU addition the cells were counted using a hemocytometer. Error bars represent SD. Data shown are representative of two independent experiments. Cell Culture. Human aortic smooth muscle cells were obtained from Clonetics (San Diego Calif.) at passage 3 and were maintained in MCBD 131 media supplemented with 2.5% FBS, 5 mg/L bovine insulin, 2 ug/L human recombinant EGF, 1 ug/L human recombinant PDGF-BB (“PDGF” is platelet derived growth factor, which is composed of a dimer of two chains, the A chain and the B chain, “PDGF-BB is a 24.3 kD homodimer of two B chains), 100 u/ml of penicillin, 100 u/ml streptomycin, and 2.5 ug/ml amphotericin B. The cells were growth-arrested by placing them in quiescence medium containing MCDB 131 medium, 20 mM HEPES (pH 7.4), 5 mg/ml transferrin, 0.5 mg/ml BSA, 50 U/ml penicillin, 50 U/ml streptomycin, and 2.5 ug/ml amphotericin B. Quiescence medium was changed daily for 1-2 days before each experiment. HL-60 cells were obtained from ATCC or from D. Hyde (UC Davis). […] At the indicated times, the number of cells in the plate was calculated by subjecting the cells to trypsinization and the cell density quantitated by light microscopy using a hemocytometer.
# A549 lung cancer cells = experiment: MTT assay A549; format: cell-based; settings: up to 40 μM
# HT-29 colon cancer cells = experiment: MTT assay HT-29; format: cell-based; settings: up to 40 μM
# human VSM cells [1] = experiment: direct counting of trypsinized VSM cells by hemocytometer; format: cell-based; settings: 12 μM, 10% serum, FIG. 1c
# Protocol: FIG. 1c. CDU (12 μM) or an equal volume of DMSO vehicle (as a control) was added concomitantly with 10% serum and the cells were counted by hemocytometer after trypsinization. Proliferation Assays. [^3H]thymidine incorporation assays were performed. To evaluate proliferation of suspension cells, cells were resuspended at 2×10^5 cells/mL in culture medium and the medium supplemented with the compound of interest or the corresponding vehicle. At the indicated times, cell density was estimated using light microscopy and a hemocytometer. To directly evaluate the proliferation of adherent cells, 2×10^4 cells were plated in a 35 mm culture dish and allowed to adhere overnight. The medium was then supplemented with the compound of interest or the corresponding vehicle. At the indicated times, the number of cells in the plate was calculated by subjecting the cells to trypsinization and the cell density quantitated by light microscopy using a hemocytometer.
# human VSM cells [2] = experiment: trypan blue exclusion, VSM cells; format: cell-based; settings: 12 μM
# Protocol: Evaluation of Cell Membrane Integrity and Toxicity. To evaluate the toxicity of compounds, as indicated by cellular trypan blue permeability, cells were plated in 35 mm dishes. After two days, the medium in the dish was replaced with fresh medium supplemented with the compound of interest or vehicle. At the indicated time post-treatment, the supernatant was removed and adherent cells were removed using trypsin. After dislodging the adherent cells, the cell suspension was pooled with the supernatant and centrifuged. The resulting cell pellet was resuspended and a trypan blue solution (0.4% in normal saline) was added to the aliquot. After incubating for approximately 5 minutes, the sample was evaluated by light microscopy. To evaluate lactate dehydrogenase (LDH) release, cells were harvested and plated onto 24 well plates and serum starved for one to two days. Test compounds were added and after 65 hours, media was removed for measurement of LDH activity. LDH activity was determined by NADH oxidation using Sigma Tox-7 in vitro toxicology kit and reported as the amount of LDH activity in the media.
# [3] = test system: LnCap prostate cancer cells; experiment: MTT assay LnCap; format: cell-based; settings: up to 40 μM
# ERK42/44 phosphorylation = experiment: Western blot phospho-MAPK in VSM cells; format: cell-based, human; settings: 10 μM, 4 h after PDGF-BB, FIG. 6
# Protocol: Human VSM cells were grown to 80-90% confluence and serum-starved as in FIG. 1. Four hours after stimulation with PDGF-BB (30 ng/ml) in the presence or absence of CDU (10 μM), the cells were lysed and equal protein quantities were electrophoresed and immunoblotted with phospho-MAPK antibody. Data shown are representative of three independent experiments Western Blots. After treatment with appropriate compounds for the indicated times, cells were lysed, protein concentrations were determined by the Lowry method, and equal protein quantities were electrophoresed and Western blotted.
# Met-1 breast tumor cells = experiment: Met-1 breast tumor cell proliferation; format: cell-based; settings: up to 20 μM
smiles,measurement,setting,value
"CCCCCCCCCCCCNC(=O)NC1CCCCC1 [CDU, 1-cyclohexyl-3-dodecyl urea]",induction of cyclin D1 levels,cyclin D1,profoundly decreased induction
same,proliferation of HL-60 cells,HL-60 cells,proliferated to a similar extent
same,"toxicity, MTT assay",A549 lung cancer cells,no toxicity observed
same,"toxicity, MTT assay",HT-29 colon cancer cells,no toxicity observed
same,cell proliferation by direct counting of trypsinized cells,human VSM cells [1],Inhibition of cell proliferation
same,cells stained blue (trypan blue),human VSM cells [2]; 8 h,3.4%
same,cells stained blue (trypan blue),human VSM cells [2]; 24 h,3.0%
same,"toxicity, MTT assay",[3],no toxicity observed
same,PDGF-stimulated ERK42/44 phosphorylation,ERK42/44 phosphorylation,no change
same,effect on Met-1 cells,Met-1 breast tumor cells,lack of effect
